Assay results: ChEMBL document CHEMBL1687752, “Impact of antifungal prophylaxis on colonization and azole susceptibility of Candida species” (2009)
In brackets after ≈: the same amount, converted by molar mass.

The compounds below were run on Candida tropicalis (assay: Antifungal activity against 9 days cultured Candida tropicalis isolated from neutropenic subject with AML or MDS stool receiving antifungal therapy for 45 days after 24 days of prophylaxis by broth microdilution method). Conditions: not given.
Format: functional
`OC(Cn1cncn1)(Cn1cncn1)c1ccc(F)cc1F` [FLUCONAZOLE] gave an MIC of 0.5 µg/mL (≈ 1.63 µM).

These compounds were tested on Pichia kudriavzevii (assay: Antifungal activity against 14 days cultured Candida krusei isolated from neutropenic subject with AML or MDS stool after 12 days of prophylaxis by broth microdilution method). Conditions: not given.
Format: functional
`OC(Cn1cncn1)(Cn1cncn1)c1ccc(F)cc1F` [FLUCONAZOLE] gave an MIC of 64 µg/mL (≈ 209 µM).

The compounds below were run on Candida albicans (assay: Antifungal activity against Candida albicans isolated from HSCT recipient 031 with acute or chronic GVHD mouth receiving antifungal drug after 109 days prophylaxis by broth microdilution method). Conditions: not given.
Format: functional
For `OC(Cn1cncn1)(Cn1cncn1)c1ccc(F)cc1F` [FLUCONAZOLE], the MIC was 128 µg/mL (≈ 418 µM).

What follows are compounds tested on Nakaseomyces glabratus (assay: Antifungal activity against 23 days cultured Candida glabrata isolated from neutropenic subject with AML or MDS stool receiving antifungal therapy for 25 days after 3 days of prophylaxis by broth microdilution method). Conditions: not given.
Format: functional
For `OC(Cn1cncn1)(Cn1cncn1)c1ccc(F)cc1F` [FLUCONAZOLE], the MIC was 4 µg/mL (≈ 13.1 µM).

Each compound was assayed on Candida albicans (assay: Antifungal activity against Candida albicans isolated from HSCT recipients with acute or chronic GVHD receiving posaconazole by broth microdilution method). Conditions: not given.
Format: functional
Work on `OC(Cn1cncn1)(Cn1cncn1)c1ccc(F)cc1F` [FLUCONAZOLE] yielded an MIC50 of 0.25 µg/mL (≈ 0.816 µM) and an MIC90 of 16 µg/mL (≈ 52.2 µM).

The compounds below were run on Nakaseomyces glabratus (assay: Antifungal activity against Candida glabrata isolated from neutropenic subjects with AML or MDS receiving fluconazole by broth microdilution method). Conditions: not given.
Format: functional
`OC(Cn1cncn1)(Cn1cncn1)c1ccc(F)cc1F` [FLUCONAZOLE] gave an MIC50 of 4 µg/mL (≈ 13.1 µM) and an MIC90 of 16 µg/mL (≈ 52.2 µM).

Each compound was assayed on Nakaseomyces glabratus (assay: Antifungal activity against 12 days cultured Candida glabrata isolated from HSCT recipient with acute or chronic GVHD mouth receiving antifungal therapy for 143 days after 116 days of prophylaxis by broth microdilution method). Conditions: not given.
Format: functional
Compound `OC(Cn1cncn1)(Cn1cncn1)c1ccc(F)cc1F` [FLUCONAZOLE] has an MIC of 64 µg/mL (≈ 209 µM).

The compounds below were run on Nakaseomyces glabratus (assay: Antifungal activity against 3 days cultured Candida glabrata isolated from neutropenic subject with AML or MDS stool receiving antifungal therapy for 25 days after 3 days of prophylaxis by broth microdilution method). Conditions: not given.
Format: functional
With `OC(Cn1cncn1)(Cn1cncn1)c1ccc(F)cc1F` [FLUCONAZOLE] the MIC was 8 µg/mL (≈ 26.1 µM).

These compounds were tested on Nakaseomyces glabratus (assay: Antifungal activity against Candida glabrata isolated from HSCT recipient 975 with acute or chronic GVHD mouth after 112 days prophylaxis by broth microdilution method). Conditions: not given.
Format: functional
Compound `OC(Cn1cncn1)(Cn1cncn1)c1ccc(F)cc1F` [FLUCONAZOLE] has an MIC of 4 µg/mL (≈ 13.1 µM).

The compounds below were run on Nakaseomyces glabratus (assay: Antifungal activity against Candida glabrata isolated from neutropenic subjects with AML or MDS receiving posaconazole assessed as maximum MIC by broth microdilution method). Conditions: not given.
Format: functional
In the case of `OC(Cn1cncn1)(Cn1cncn1)c1ccc(F)cc1F` [FLUCONAZOLE], the MIC is reported as 64 µg/mL.

Each compound was assayed on Nakaseomyces glabratus (assay: Antifungal activity against 25 days cultured Candida glabrata isolated from invasive fungal infected subject blood receiving antifungal therapy for 25 days after 3 days of prophylaxis by broth microdilution method). Conditions: not given.
Format: functional
Work on `OC(Cn1cncn1)(Cn1cncn1)c1ccc(F)cc1F` [FLUCONAZOLE] yielded an MIC of 8 µg/mL (≈ 26.1 µM).

What follows are compounds tested on Nakaseomyces glabratus (assay: Antifungal activity against -2 days cultured Candida glabrata isolated from HSCT recipient with acute or chronic GVHD mouth receiving antifungal therapy for 172 days after 114 days of prophylaxis by broth microdilution method). Conditions: not given.
Format: functional
Work on `OC(Cn1cncn1)(Cn1cncn1)c1ccc(F)cc1F` [FLUCONAZOLE] yielded an MIC of 16 µg/mL (≈ 52.2 µM).

These compounds were tested on Candida albicans (assay: Antifungal activity against Candida albicans isolated from HSCT recipient 301 with acute or chronic GVHD mouth after 114 days prophylaxis by broth microdilution method). Conditions: not given.
Format: functional
`OC(Cn1cncn1)(Cn1cncn1)c1ccc(F)cc1F` [FLUCONAZOLE] gave an MIC of under 0.125 µg/mL.

These compounds were tested on Candida albicans (assay: Antifungal activity against Candida albicans isolated from neutropenic subjects with AML or MDS receiving posaconazole assessed as maximum MIC by broth microdilution method). Conditions: not given.
Format: functional
With `OC(Cn1cncn1)(Cn1cncn1)c1ccc(F)cc1F` [FLUCONAZOLE] the MIC was 0.25 µg/mL.

What follows are compounds tested on Pichia kudriavzevii (assay: Antifungal activity against 8 days cultured Candida krusei isolated from neutropenic subject with AML or MDS pharynx after 12 days of prophylaxis by broth microdilution method). Conditions: not given.
Format: functional
For `OC(Cn1cncn1)(Cn1cncn1)c1ccc(F)cc1F` [FLUCONAZOLE], the MIC was over 64 µg/mL.

What follows are compounds tested on Nakaseomyces glabratus (assay: Antifungal activity against 176 days cultured Candida glabrata isolated from HSCT recipient with acute or chronic GVHD mouth receiving antifungal therapy for 172 days after 114 days of prophylaxis by broth microdilution method). Conditions: not given.
Format: functional
`OC(Cn1cncn1)(Cn1cncn1)c1ccc(F)cc1F` [FLUCONAZOLE] gave an MIC of 32 µg/mL (≈ 104 µM).

What follows are compounds tested on Nakaseomyces glabratus (assay: Antifungal activity against 1 day cultured Candida glabrata isolated from HSCT recipient with acute or chronic GVHD mouth receiving antifungal therapy for 143 days after 116 days of prophylaxis by broth microdilution method). Conditions: not given.
Format: functional
`OC(Cn1cncn1)(Cn1cncn1)c1ccc(F)cc1F` [FLUCONAZOLE] was tested, and the MIC was 16 µg/mL (≈ 52.2 µM).

These compounds were tested on Candida albicans (assay: Antifungal activity against Candida albicans isolated from HSCT recipient 262 with acute or chronic GVHD mouth receiving antifungal drug after 115 days prophylaxis by broth microdilution method). Conditions: not given.
Format: functional
`OC(Cn1cncn1)(Cn1cncn1)c1ccc(F)cc1F` [FLUCONAZOLE] showed an MIC of 2 µg/mL (≈ 6.53 µM).

Each compound was assayed on Pichia kudriavzevii (assay: Antifungal activity against 6 days cultured Candida krusei isolated from neutropenic subject with AML or MDS stool receiving antifungal therapy for 19 days after 6 days of prophylaxis by broth microdilution method). Conditions: not given.
Format: functional
With `OC(Cn1cncn1)(Cn1cncn1)c1ccc(F)cc1F` [FLUCONAZOLE] the MIC was 64 µg/mL (≈ 209 µM).

What follows are compounds tested on Nakaseomyces glabratus (assay: Antifungal activity against 29 days cultured Candida glabrata isolated from neutropenic subject with AML or MDS stool after 48 days of prophylaxis by broth microdilution method). Conditions: not given.
Format: functional
Work on `OC(Cn1cncn1)(Cn1cncn1)c1ccc(F)cc1F` [FLUCONAZOLE] yielded an MIC of 8 µg/mL (≈ 26.1 µM).

The compounds below were run on Nakaseomyces glabratus (assay: Antifungal activity against 43 days cultured Candida glabrata isolated from HSCT recipient with acute or chronic GVHD mouth receiving antifungal therapy for 168 days after 113 days of prophylaxis by broth microdilution method). Conditions: not given.
Format: functional
Work on `OC(Cn1cncn1)(Cn1cncn1)c1ccc(F)cc1F` [FLUCONAZOLE] yielded an MIC of 64 µg/mL (≈ 209 µM).

The compounds below were run on Nakaseomyces glabratus (assay: Antifungal activity against 111 days cultured Candida glabrata isolated from HSCT recipient with acute or chronic GVHD mouth receiving antifungal therapy for 143 days after 116 days of prophylaxis by broth microdilution method). Conditions: not given.
Format: functional
In the case of `OC(Cn1cncn1)(Cn1cncn1)c1ccc(F)cc1F` [FLUCONAZOLE], the MIC is reported as 64 µg/mL (≈ 209 µM).

What follows are compounds tested on Nakaseomyces glabratus (assay: Antifungal activity against 56 days cultured Candida glabrata isolated from HSCT recipient with acute or chronic GVHD mouth receiving antifungal therapy for 172 days after 114 days of prophylaxis by broth microdilution method). Conditions: not given.
Format: functional
Compound `OC(Cn1cncn1)(Cn1cncn1)c1ccc(F)cc1F` [FLUCONAZOLE] has an MIC of 4 µg/mL (≈ 13.1 µM).

Each compound was assayed on Nakaseomyces glabratus (assay: Antifungal activity against Candida glabrata isolated from HSCT recipient 002 with acute or chronic GVHD mouth receiving antifungal drug after 116 days prophylaxis by broth microdilution method). Conditions: not given.
Format: functional
Compound `OC(Cn1cncn1)(Cn1cncn1)c1ccc(F)cc1F` [FLUCONAZOLE] has an MIC of 64 µg/mL (≈ 209 µM).

These compounds were tested on Candida albicans (assay: Antifungal activity against Candida albicans isolated from neutropenic subjects with AML or MDS prior to initiation of posaconazole therapy assessed as maximum MIC by broth microdilution method). Conditions: not given.
Format: functional
For `OC(Cn1cncn1)(Cn1cncn1)c1ccc(F)cc1F` [FLUCONAZOLE], the MIC was 2 µg/mL.

The compounds below were run on Nakaseomyces glabratus (assay: Antifungal activity against 14 days cultured Candida glabrata isolated from HSCT recipient with acute or chronic GVHD mouth after 17 days of prophylaxis by broth microdilution method). Conditions: not given.
Format: functional
`OC(Cn1cncn1)(Cn1cncn1)c1ccc(F)cc1F` [FLUCONAZOLE] gave an MIC of over 64 µg/mL.

Each compound was assayed on Nakaseomyces glabratus (assay: Antifungal activity against Candida glabrata isolated from HSCT recipients with acute or chronic GVHD prior to initiation of fluconazole therapy by broth microdilution method). Conditions: not given.
Format: functional
Work on `OC(Cn1cncn1)(Cn1cncn1)c1ccc(F)cc1F` [FLUCONAZOLE] yielded an MIC50 of 16 µg/mL (≈ 52.2 µM) and an MIC90 of 64 µg/mL (≈ 209 µM).

The compounds below were run on Pichia kudriavzevii (assay: Antifungal activity against 8 days cultured Candida krusei isolated from neutropenic subject with AML or MDS stool after 12 days of prophylaxis by broth microdilution method). Conditions: not given.
Format: functional
In the case of `OC(Cn1cncn1)(Cn1cncn1)c1ccc(F)cc1F` [FLUCONAZOLE], the MIC is reported as over 64 µg/mL.

Each compound was assayed on Nakaseomyces glabratus (assay: Antifungal activity against 19 days cultured Candida glabrata isolated from HSCT recipient with acute or chronic GVHD mouth after 17 days of prophylaxis by broth microdilution method). Conditions: not given.
Format: functional
`OC(Cn1cncn1)(Cn1cncn1)c1ccc(F)cc1F` [FLUCONAZOLE] was tested, and the MIC was over 64 µg/mL.

What follows are compounds tested on Nakaseomyces glabratus (assay: Antifungal activity against Candida glabrata isolated from neutropenic subjects with AML or MDS prior to initiation of posaconazole therapy assessed as maximum MIC by broth microdilution method). Conditions: not given.
Format: functional
With `OC(Cn1cncn1)(Cn1cncn1)c1ccc(F)cc1F` [FLUCONAZOLE] the MIC was 32 µg/mL.

These compounds were tested on Candida albicans (assay: Antifungal activity against Candida albicans isolated from neutropenic subjects with AML or MDS prior to initiation of fluconazole therapy assessed as maximum MIC by broth microdilution method). Conditions: not given.
Format: functional
For `OC(Cn1cncn1)(Cn1cncn1)c1ccc(F)cc1F` [FLUCONAZOLE], the MIC was 1 µg/mL.

What follows are compounds tested on Candida albicans (assay: Antifungal activity against Candida albicans isolated from HSCT recipient 928 with acute or chronic GVHD mouth receiving antifungal drug after 112 days prophylaxis by broth microdilution method). Conditions: not given.
Format: functional
Work on `OC(Cn1cncn1)(Cn1cncn1)c1ccc(F)cc1F` [FLUCONAZOLE] yielded an MIC of 128 µg/mL (≈ 418 µM).

Each compound was assayed on Nakaseomyces glabratus (assay: Antifungal activity against 36 days cultured Candida glabrata isolated from neutropenic subject with AML or MDS pharynx after 48 days of prophylaxis by broth microdilution method). Conditions: not given.
Format: functional
For `OC(Cn1cncn1)(Cn1cncn1)c1ccc(F)cc1F` [FLUCONAZOLE], the MIC was 8 µg/mL (≈ 26.1 µM).

The compounds below were run on Nakaseomyces glabratus (assay: Antifungal activity against 42 days cultured Candida glabrata isolated from neutropenic subject with AML or MDS stool after 48 days of prophylaxis by broth microdilution method). Conditions: not given.
Format: functional
Compound `OC(Cn1cncn1)(Cn1cncn1)c1ccc(F)cc1F` [FLUCONAZOLE] has an MIC of 8 µg/mL (≈ 26.1 µM).

What follows are compounds tested on Saccharomyces cerevisiae (assay: Antifungal activity against Saccharomyces cerevisiae isolated from HSCT recipient 513 with acute or chronic GVHD mouth after 112 days prophylaxis by broth microdilution method). Conditions: not given.
Format: functional
`OC(Cn1cncn1)(Cn1cncn1)c1ccc(F)cc1F` [FLUCONAZOLE] gave an MIC of 8 µg/mL (≈ 26.1 µM).

The compounds below were run on Candida albicans (assay: Antifungal activity against Candida albicans isolated from HSCT recipient 462 with acute or chronic GVHD mouth after 112 days prophylaxis by broth microdilution method). Conditions: not given.
Format: functional
For `OC(Cn1cncn1)(Cn1cncn1)c1ccc(F)cc1F` [FLUCONAZOLE], the MIC was 8 µg/mL (≈ 26.1 µM).

What follows are compounds tested on Pichia kudriavzevii (assay: Antifungal activity against 14 days cultured Candida krusei isolated from neutropenic subject with AML or MDS pharynx after 12 days of prophylaxis by broth microdilution method). Conditions: not given.
Format: functional
`OC(Cn1cncn1)(Cn1cncn1)c1ccc(F)cc1F` [FLUCONAZOLE] gave an MIC of 64 µg/mL (≈ 209 µM).

Each compound was assayed on Nakaseomyces glabratus (assay: Antifungal activity against Candida glabrata isolated from neutropenic subject 1102 with AML or MDS stool receiving antifungal drug after 26 days prophylaxis by broth microdilution method). Conditions: 624 h.
Format: functional
`OC(Cn1cncn1)(Cn1cncn1)c1ccc(F)cc1F` [FLUCONAZOLE] was tested, and the MIC was over 64 µg/mL.

The compounds below were run on Nakaseomyces glabratus (assay: Antifungal activity against 85 days cultured Candida glabrata isolated from HSCT recipient with acute or chronic GVHD mouth receiving antifungal therapy for 143 days after 116 days of prophylaxis by broth microdilution method). Conditions: not given.
Format: functional
Compound `OC(Cn1cncn1)(Cn1cncn1)c1ccc(F)cc1F` [FLUCONAZOLE] has an MIC of 64 µg/mL (≈ 209 µM).
